In one assay the test system is MRSA (NRS70, NRS119). The experiment in a line: MIC against MRSA strains. It counts as cell-based, Staphylococcus aureus. The following applies: for MIC: Staphylococcus aureus.
Another assay concerns C. difficile. Description: MIC by broth microdilution against C. difficile strains. In kind it is cell-based, Clostridioides difficile. Conditions: for MIC: Clostridioides difficile; for MIC C. difficile: ATCC 43255, ribotype 087; for Selectivity: MIC MRSA/MIC C. difficile, Table 3.
Setting [1] is: NRS70 strain, Table 2 (SAR^1), read-out: MIC MRSA.
[2] abbreviates: ATCC43255, ATCC 43255, ribotype 087, Table 2 (SAR^1), read-out: MIC C. difficile.
Where [3] appears, read: MRSA strain NRS70, read-out: MIC against MRSA.
[4] abbreviates: ATCC43255, C. difficile ATCC 43255, read-out: MIC against C. difficile.
The mark [5] stands for this setting: NRS70 strain, Table 3 (SAR^2 and SAR^3), read-out: MIC MRSA.
The mark [6] stands for this setting: ATCC43255, ATCC 43255, ribotype 087, Table 3 (SAR^2 and SAR^3), read-out: MIC C. difficile.
[7] abbreviates: ATCC43255, C. difficile ATCC43255, FIG. 2 legend, read-out: MIC of positive controls.

One may read the MIC as the lowest concentration that inhibits growth of the organism.

Values after ≈ are worked out from the molar mass of the structure shown. Read-outs that look alike come from different tables or passages of the source.

Consider `CCOC(=O)c1coc(NC(=O)c2ccnc(-c3ccc(Cl)c(Cl)c3)c2)n1` [Compound 15, Ethyl 2-(2-(3,4-dichlorophenyl)isonicotinamido)oxazole-4-carboxylate], for which the MIC with MRSA (NRS70, NRS119) (setting [1]) worked out at 1 µg/mL (≈ 2.46 µM); in the assay on C. difficile (setting [2]), 0.125 µg/mL (≈ 0.308 µM).
As to `O=C(Nc1nccs1)c1ccnc(-c2ccc(Cl)c(Cl)c2)c1` [Compound 16, 2-(3,4-Dichlorophenyl)-N-(thiazol-2-yl)isonicotinamide], the MIC was ≥ 64 µg/mL in the assay on MRSA (NRS70, NRS119) (setting [3]); ≥ 256 µg/mL in the assay with MRSA (NRS70, NRS119) (setting [1]); ≥ 128 µg/mL in the assay on C. difficile (setting [2]); ≥ 64 µg/mL with C. difficile (setting [4]).
In the case of `O=C(Nc1ncc[nH]1)c1ccnc(-c2ccc(Cl)c(Cl)c2)c1` [Compound 17, 2-(3,4-Dichlorophenyl)-N-(1H-imidazol-2-yl)isonicotinamide], the MIC in the assay on MRSA (NRS70, NRS119) (setting [3]) is ≥ 64 µg/mL; in the assay with MRSA (NRS70, NRS119) (setting [1]), ≥ 256 µg/mL; with C. difficile (setting [2]), ≥ 128 µg/mL; with C. difficile (setting [4]), ≥ 64 µg/mL.
Take `O=C(Nc1ccon1)c1ccnc(-c2ccc(Cl)c(Cl)c2)c1` [Compound 18, 2-(3,4-Dichlorophenyl)-N-(isoxazol-3-yl)isonicotinamide]: the MIC was ≥ 64 µg/mL in the assay with MRSA (NRS70, NRS119) (setting [3]); ≥ 256 µg/mL in the assay with MRSA (NRS70, NRS119) (setting [1]); ≥ 128 µg/mL with C. difficile (setting [2]); ≥ 64 µg/mL in the assay on C. difficile (setting [4]).
`Cc1nnc(NC(=O)c2ccnc(-c3ccc(Cl)c(Cl)c3)c2)o1` [Compound 19, 2-(3,4-Dichlorophenyl)-N-(5-methyl-1,3,4-oxadiazol-2-yl)isonicotinamide]: the MIC with MRSA (NRS70, NRS119) (setting [3]) was ≥ 64 µg/mL; with MRSA (NRS70, NRS119) (setting [1]), ≥ 256 µg/mL; with C. difficile (setting [2]) it was 64 µg/mL (≈ 183 µM); in the assay on C. difficile (setting [4]), ≥ 64 µg/mL.
As for `CNC(=O)c1ccnc(-c2ccc(Cl)c(Cl)c2)c1` [Compound 20, 2-(3,4-Dichlorophenyl)-N-methylisonicotinamide], the MIC in the assay with MRSA (NRS70, NRS119) (setting [3]) is ≥ 64 µg/mL; in the assay on MRSA (NRS70, NRS119) (setting [1]) it was ≥ 256 µg/mL; in the assay on C. difficile (setting [2]), 64 µg/mL (≈ 228 µM); in the assay with C. difficile (setting [4]) it was ≥ 64 µg/mL.
As to `O=C(Nc1nc2ncccc2o1)c1ccnc(-c2ccc(Cl)c(Cl)c2)c1` [Compound 22, 2-(3,4-Dichlorophenyl)-N-(oxazolo[4,5-b]pyridin-2-yl)isonicotinamide], the minimal inhibitory concentration (MIC) in the assay on MRSA (NRS70, NRS119) (setting [1]) was determined as 0.25 µg/mL (≈ 0.649 µM); in the assay with C. difficile (setting [2]), 0.0625 µg/mL (≈ 0.162 µM).
For the compound `CCOC(=O)c1cnc(NC(=O)c2ccnc(-c3ccc(Cl)c(Cl)c3)c2)o1` [Compound 23, Ethyl 2-(2-(3,4-dichlorophenyl)isonicotinamido)oxazole-5-carboxylate], the MIC came out at 0.06 µg/mL (≈ 0.148 µM) in the assay on MRSA (NRS70, NRS119) (setting [1]) and 0.0625 µg/mL (≈ 0.154 µM) in the assay with C. difficile (setting [2]).
The like results for `O=C(Nc1ncc(C(=O)O)o1)c1ccnc(-c2ccc(Cl)c(Cl)c2)c1` [Compound 24, 2-(2-(3,4-Dichlorophenyl)isonicotinamido)oxazole-5-carboxylic acid] were, in that order, 64 µg/mL (≈ 169 µM) and 128 µg/mL (≈ 338 µM).
The like results for `C#CCCCCCOC(=O)c1cnc(NC(=O)c2ccnc(-c3ccc(Cl)c(Cl)c3)c2)o1` [Compound 25, Hept-6-yn-1-yl 2-(2-(3,4-dichlorophenyl)isonicotinamido)oxazole-5-carboxylate] were, in that order, 0.06 µg/mL (≈ 0.127 µM) and 0.25 µg/mL (≈ 0.529 µM).
The like results for `O=C(Nc1ncc(C(=O)OCCCCCCO)o1)c1ccnc(-c2ccc(Cl)c(Cl)c2)c1` [Compound 26, 6-Hydroxyhexyl 2-(2-(3,4-dichlorophenyl)isonicotinamido)oxazole-5-carboxylate] were, in that order, 0.25 µg/mL (≈ 0.523 µM) and 0.25 µg/mL (≈ 0.523 µM).
For the compound `CC(C)(C)OC(=O)NCCCCCCOC(=O)c1cnc(NC(=O)c2ccnc(-c3ccc(Cl)c(Cl)c3)c2)o1` [Compound 27, 6-((Tert-butoxycarbonyl)amino)hexyl 2-(2-(3,4-dichlorophenyl)isonicotinamido) oxazole-5-carboxylate], in the assay on MRSA (NRS70, NRS119) (NRS70 strain, Table 2 (SAR^1)), the “MIC MRSA” value came out at 16 µg/mL (≈ 27.7 µM). In addition, the “MIC C. difficile” value in the assay on C. difficile (Table 2 (SAR^1)) turned out to be 8 µg/mL (≈ 13.9 µM).
As to `O=C(Nc1ncc(C(=O)N2CCOCC2)o1)c1ccnc(-c2ccc(Cl)c(Cl)c2)c1` [Compound 29, 2-(3,4-Dichlorophenyl)-N-(5-(morpholine-4-carbonyl)oxazol-2-yl)isonicotinamide], the MIC with MRSA (NRS70, NRS119) (setting [1]) is 2 µg/mL (≈ 4.47 µM); in the assay on C. difficile (setting [2]) it was 0.125 µg/mL (≈ 0.279 µM).
In the case of `CC(C)(C)OC(=O)N1CCN(C(=O)c2cnc(NC(=O)c3ccnc(-c4ccc(Cl)c(Cl)c4)c3)o2)CC1` [Compound 30, Tert-butyl 4-(2-(2-(3,4-Dichlorophenyl)isonicotinamido)oxazole-5-carbonyl) piperazine-1-carboxylate], the “MIC MRSA” value in the assay with MRSA (NRS70, NRS119) (NRS70 strain, Table 2 (SAR^1)) came out at 2 µg/mL (≈ 3.66 µM). For the same compound, the “MIC C. difficile” value against C. difficile (Table 2 (SAR^1)) is 0.25 µg/mL (≈ 0.458 µM).
Take `Cl.Cl.O=C(Nc1ncc(C(=O)N2CCNCC2)o1)c1ccnc(-c2ccc(Cl)c(Cl)c2)c1` [Compound 31, 2-(3,4-Dichlorophenyl)-N-(5-(piperazine-1-carbonyl)oxazol-2-yl)isonicotinamide dihydrochloride]: the MIC in the assay with MRSA (NRS70, NRS119) (setting [1]) worked out at 16 µg/mL; in the assay with C. difficile (setting [2]), 8 µg/mL.
With `O=C(Nc1ncco1)c1ccnc(-c2ccccc2Cl)c1` [Compound 34, 2-(2-Chlorophenyl)-N-(oxazol-2-yl)isonicotinamide], the MIC turned out to be 8 µg/mL (≈ 26.7 µM) in the assay with MRSA (NRS70, NRS119) (setting [5]) and 4 µg/mL (≈ 13.3 µM) with C. difficile (setting [6]). Moreover, the Selectivity with C. difficile is reported as 2.
The like results for `O=C(Nc1ncco1)c1ccnc(-c2ccccc2F)c1` [Compound 38, 2-(2-Fluorophenyl)-N-(oxazol-2-yl)isonicotinamide] were, in that order, 1 µg/mL (≈ 3.53 µM), 4 µg/mL (≈ 14.1 µM) and 0.25.
For `O=C(Nc1ncco1)c1ccnc(-c2cc(F)cc(F)c2)c1` [Compound 42, 2-(3,5-Difluorophenyl)-N-(oxazol-2-yl)isonicotinamide] the same measures were 8 µg/mL (≈ 26.6 µM), 0.5 µg/mL (≈ 1.66 µM) and 16.
The like results for `O=C(Nc1ncco1)c1ccnc(-c2ccc([N+](=O)[O-])cc2)c1` [Compound 49, 2-(4-Nitrophenyl)-N-(oxazol-2-yl)isonicotinamide] were, in that order, 64 µg/mL (≈ 206 µM), 1 µg/mL (≈ 3.22 µM) and 64.
Take `O=C(Nc1ncco1)c1ccnc(-c2cccc([N+](=O)[O-])c2)c1` [Compound 50, 2-(3-Nitrophenyl)-N-(oxazol-2-yl)isonicotinamide]: the MIC in the assay with MRSA (NRS70, NRS119) (setting [5]) was ≥ 256 µg/mL; in the assay on C. difficile (setting [6]), 2 µg/mL (≈ 6.45 µM). Also, the Selectivity with C. difficile is ≥128.
Regarding `COc1ccc(-c2cc(C(=O)Nc3ncco3)ccn2)cc1` [Compound 51, 2-(4-Methoxyphenyl)-N-(oxazol-2-yl)isonicotinamide], the MIC in the assay on MRSA (NRS70, NRS119) (setting [5]) worked out at 8 µg/mL (≈ 27.1 µM); in the assay on C. difficile (setting [6]), 4 µg/mL (≈ 13.5 µM). Moreover, the Selectivity in the assay on C. difficile worked out at 2.
The like results for `CC(C)Oc1ccc(-c2cc(C(=O)Nc3ncco3)ccn2)cc1` [Compound 52, 2-(4-Isopropoxyphenyl)-N-(oxazol-2-yl)isonicotinamide] were, in that order, 4 µg/mL (≈ 12.4 µM), 2 µg/mL (≈ 6.19 µM) and 2.
For `COc1ccc(-c2cc(C(=O)Nc3ncco3)ccn2)cc1OC` [Compound 53, 2-(3,4-Dimethoxyphenyl)-N-(oxazol-2-yl)isonicotinamide] the same measures were 64 µg/mL (≈ 197 µM), 16 µg/mL (≈ 49.2 µM) and 4.
`COc1ccc(-c2cc(C(=O)Nc3ncco3)ccn2)cc1Cl` [Compound 54, 2-(3-Chloro-4-methoxyphenyl)-N-(oxazol-2-yl)isonicotinamide]: the MIC came out at 1 µg/mL (≈ 3.03 µM) with MRSA (NRS70, NRS119) (setting [5]) and 0.5 µg/mL (≈ 1.52 µM) in the assay with C. difficile (setting [6]). In the assay on C. difficile, the Selectivity came to 2.
For `N#Cc1cccc(-c2cc(C(=O)Nc3ncco3)ccn2)c1` [Compound 55, 2-(3-Cyanophenyl)-N-(oxazol-2-yl)isonicotinamide] the same measures were 32 µg/mL (≈ 110 µM), 4 µg/mL (≈ 13.8 µM) and 8.
The like results for `O=C(Nc1ncco1)c1ccnc(-c2ccc(OCc3ccccc3)cc2)c1` [Compound 56, 2-(4-(Benzyloxy)phenyl)-N-(oxazol-2-yl)isonicotinamide] were, in that order, 8 µg/mL (≈ 21.5 µM), 4 µg/mL (≈ 10.8 µM) and 2.
The like results for `O=C(Nc1ncco1)c1ccnc(-c2cccc(OCc3ccccc3)c2)c1` [Compound 57, 2-(3-(Benzyloxy)phenyl)-N-(oxazol-2-yl)isonicotinamide] were, in that order, 1 µg/mL (≈ 2.69 µM), 0.5 µg/mL (≈ 1.35 µM) and 2.
For `CC(C)(C)OC(=O)Nc1ccc(-c2cc(C(=O)Nc3ncco3)ccn2)cc1` [Compound 58, Tert-butyl (4-(4-(oxazol-2-ylcarbamoyl)pyridin-2-yl)phenyl)carbamate], the MIC with MRSA (NRS70, NRS119) (setting [5]) came to 8 µg/mL (≈ 21 µM); in the assay on C. difficile (setting [6]), 8 µg/mL (≈ 21 µM). In the assay with C. difficile, this compound yielded a Selectivity of 1.
For the compound `CC(C)(C)OC(=O)Nc1cccc(-c2cc(C(=O)Nc3ncco3)ccn2)c1` [Compound 59, Tert-butyl (3-(4-(oxazol-2-ylcarbamoyl)pyridin-2-yl)phenyl)carbamate], the minimum inhibitory concentration (MIC) stood at 4 µg/mL (≈ 10.5 µM) with MRSA (NRS70, NRS119) (setting [5]) and 8 µg/mL (≈ 21 µM) in the assay on C. difficile (setting [6]). In the assay on C. difficile, this compound yielded a Selectivity of 0.5.
Consider `O=C(Nc1ncco1)c1ccnc(-c2ccccc2)c1` [Compound 60, N-(Oxazol-2-yl)-2-phenylisonicotinamide], for which the MIC was found to be 8 µg/mL (≈ 30.2 µM) with MRSA (NRS70, NRS119) (setting [5]) and 8 µg/mL (≈ 30.2 µM) with C. difficile (setting [6]). Besides, the Selectivity in the assay with C. difficile worked out at 1.
In the case of `CC(=O)NC[C@H]1CN(c2ccc(N3CCOCC3)c(F)c2)C(=O)O1` [linezolid, reference compound], in the assay with C. difficile (setting [7]), the MIC was 2 µg/mL.
As for `CO[C@H]1/C=C/O[C@@]2(C)Oc3c(C)c(O)c4c(O)c(c5c(nc6cc(C)ccn65)c4c3C2=O)NC(=O)/C(C)=C\C=C\[C@H](C)[C@H](O)[C@@H](C)[C@@H](O)[C@@H](C)[C@H](OC(C)=O)[C@@H]1C` [rifaximin, reference compound], the MIC in the assay on C. difficile (setting [7]) was 0.03 µg/mL.
